Results published in patent US9284271B2, “Compounds for the treatment of neurodegenerative diseases” (Katholieke Universiteit Leuven, K.U. Leuven R&D, priority 2010, dated 2016).

What follows are molecules tested on M17-TAU P301L cells (assay: Tau-induced toxicity experiment: LDH leakage of retinoic acid incubated M17-TAU P301L cells). Details: Homo sapiens, Neuroblastoma cell, 168 h; reduction of LDH activity of retinoic acid incubated M17-TAU P301L neuroblastoma cells; 7 days incubation; Promega Cytotox 96 assay.
Type: cell-based
Excerpt: A TAU expression plasmid was constructed by sub-cloning the cDNA of human TAU-P301L (encoding for TAU with proline 301 substituted by a leucine residue) into mammalian expression vector pcDNA3.1 resulting in plasmid pcDNA3.1-TAU P301L. Plasmids pcDNA3.1 and pcDNA3.1-TAU P301L were transfected to human neuroblastoma cells ([…]; ATCC No. CRL-2267) and independent clonal lines with the plasmids stably integrated into the genome were selected. […] Expression of the TAU P301L genes in the cell lines was confirmed by Western analysis.
In degenerated or dead cells lactate dehydrogenase (LDH) is leaked out of the cells into the extracellular environment due to a loss of plasma-membrane integrity. This principle was used to determine cytotoxicity by quantifying the level of leaked LDH into the growth medium.
The detailed method for determining TAU cytotoxicity was as follows: From appropriate precultures of M17-3.1 and M17-TAU(P301L) cells were seeded at 2500 cells/cm2 in Optimem Reduced Serum without phenol red (Gibco, Cat. 31985-047) supplemented with 1% fetal calf serum, 1 mM sodium pyruvate, 1× non-essential amino acids, 500 μg/ml G418 0.5× antibiotic/antimycotic. After 3 h of incubation at 37° C./5% CO2 1 volume of Optimem Reduced Serum (same as described above; except without fetal calf serum) supplemented with 2.5 μM retinoic acid (RA) was added. The cells were further incubated for 7 days. Subsequently, LDH activity was determined using Promega Cytotox 96 Non-Radioactive cytotoxicity assay, (Cat. G1780) according the supplier's instructions.
The M17-TAU P301L cell line made it possible to assess the ability of novel compounds to counteract TAU cytotoxicity. […] These measurements were used to calculate EC50 values of table 2.
Exemplary compounds of the present invention are shown in table 2, with their chemical name and their EC50 value (expressed in nM) as determined from example 75 in the Tau-induced toxicity experiment.
Work on `O=C(NCCc1c[nH]c2ccc(Cl)cc12)c1ccc(-c2ccccc2)cc1` [Cpd002, N-(2-(5-chloro-1H-indol-3-yl)ethyl)biphenyl-4-carboxamide] yielded an EC50 of 130 nM. Work on `O=C(NCCc1c[nH]c2ccc(F)cc12)c1ccc(-c2ccccc2)cc1` [Cpd003, N-(2-(5-fluoro-1H-indol-3-yl)ethyl)biphenyl-4-carboxamide] yielded an EC50 of 448 nM. `Cc1ccc2[nH]cc(CCNC(=O)c3ccc(-c4ccccc4)cc3)c2c1` [Cpd004, N-(2-(5-methyl-1H-indol-3-yl)ethyl)biphenyl-4-carboxamide] was tested, and the EC50 was 238 nM. For `CCOC(=O)c1cnn(-c2ccc(C(=O)NCCc3c[nH]c4ccc(C)cc34)cc2)c1N` [Cpd005, ethyl 5-amino-1-(4-(2-(5-methyl-1H-indol-3-yl)ethylcarbamoyl)phenyl)-1H-pyrazole-4-carboxylate], the EC50 was 297 nM. `O=C(NCCc1c[nH]c2ccc(Cl)cc12)c1ccnc(N2CCOCC2)c1` [Cpd006, N-(2-(5-chloro-1H-indol-3-yl)ethyl)-2-morpholinoisonicotinamide] gave an EC50 of 876 nM. `O=C(NCCc1c[nH]c2ccc(F)cc12)c1ccnc(N2CCOCC2)c1` [Cpd007, N-(2-(5-fluoro-1H-indol-3-yl)ethyl)-2-morpholinoisonicotinamide] was tested, and the EC50 was 1080 nM. `O=C(NCCc1c[nH]c2ccc(Cl)cc12)c1ccccc1-c1ccccc1` [Cpd008, N-(2-(5-chloro-1H-indol-3-yl)ethyl)biphenyl-2-carboxamide] was tested, and the EC50 was 249 nM. `O=C(NCCc1c[nH]c2ccc(Cl)cc12)c1cccc(-c2ccccc2)c1` [Cpd010, N-(2-(5-chloro-1H-indol-3-yl)ethyl)biphenyl-3-carboxamide] showed an EC50 of 187 nM. Work on `Cc1cccc(C)c1-c1ccc(C(=O)NCCc2c[nH]c3ccc(Cl)cc23)cc1` [Cpd011, N-(2-(5-chloro-1H-indol-3-yl)ethyl)-2′,6′-dimethylbiphenyl-4-carboxamide] yielded an EC50 of 236 nM. `O=C(NCCc1c[nH]c2ccc(Cl)cc12)c1cccc(-c2ccc(O)cc2)c1` [Cpd013, N-(2-(5-chloro-1H-indol-3-yl)ethyl)-4′-hydroxybiphenyl-3-carboxamide] was tested, and the EC50 was 77 nM. For `O=C(NCCc1c[nH]c2ccc(Cl)cc12)c1ccc(-c2ccc(O)cc2)cc1` [Cpd014, N-(2-(5-chloro-1H-indol-3-yl)ethyl)-4′-hydroxybiphenyl-4-carboxamide], the EC50 was 57 nM. `Cc1ccccc1-c1ccccc1C(=O)NCCc1c[nH]c2ccc(Cl)cc12` [Cpd015, N-(2-(5-chloro-1H-indol-3-yl)ethyl)-2′-methylbiphenyl-2-carboxamide] showed an EC50 of 381 nM. `Cc1cccc(-c2cccc(C(=O)NCCc3c[nH]c4ccc(Cl)cc34)c2)c1` [Cpd019, N-(2-(5-chloro-1H-indol-3-yl)ethyl)-3′-methylbiphenyl-3-carboxamide] gave an EC50 of 709 nM. With `Cc1ccc(-c2ccccc2C(=O)NCCc2c[nH]c3ccc(Cl)cc23)cc1` [Cpd021, N-(2-(5-chloro-1H-indol-3-yl)ethyl)-4′-methylbiphenyl-2-carboxamide] the EC50 was 237 nM. `Cc1ccc(-c2cccc(C(=O)NCCc3c[nH]c4ccc(Cl)cc34)c2)cc1` [Cpd022, N-(2-(5-chloro-1H-indol-3-yl)ethyl)-4′-methylbiphenyl-3-carboxamide] gave an EC50 of 354 nM. `Cc1ccc(-c2ccc(C(=O)NCCc3c[nH]c4ccc(Cl)cc34)cc2)cc1` [Cpd023, N-(2-(5-chloro-1H-indol-3-yl)ethyl)-4′-methylbiphenyl-4-carboxamide] showed an EC50 of 235 nM. With `O=C(NCCc1c[nH]c2ccc(Cl)cc12)c1ccc(N2CCOCC2)nc1` [Cpd024, N-(2-(5-chloro-1H-indol-3-yl)ethyl)-6-morpholinonicotinamide] the EC50 was 765 nM. `O=C(NCCc1c[nH]c2ccc(Cl)cc12)c1ccccc1-n1cccn1` [Cpd025, N-(2-(5-chloro-1H-indol-3-yl)ethyl)-2-(1H-pyrazol-1-yl)benzamide] gave an EC50 of 760 nM. For `COc1cccc(-c2ccccc2C(=O)NCCc2c[nH]c3ccc(Cl)cc23)c1` [Cpd029, N-(2-(5-chloro-1H-indol-3-yl)ethyl)-3′-methoxybiphenyl-2-carboxamide], the EC50 was 523 nM. With `COc1ccc(-c2ccccc2C(=O)NCCc2c[nH]c3ccc(Cl)cc23)cc1` [Cpd032, N-(2-(5-chloro-1H-indol-3-yl)ethyl)-4′-methoxybiphenyl-2-carboxamide] the EC50 was 200 nM. With `COc1ccc(-c2cccc(C(=O)NCCc3c[nH]c4ccc(Cl)cc34)c2)cc1` [Cpd033, N-(2-(5-chloro-1H-indol-3-yl)ethyl)-4′-methoxybiphenyl-3-carboxamide] the EC50 was 223 nM. With `COc1ccc(-c2ccc(C(=O)NCCc3c[nH]c4ccc(Cl)cc34)cc2)cc1` [Cpd034, N-(2-(5-chloro-1H-indol-3-yl)ethyl)-4′-methoxybiphenyl-4-carboxamide] the EC50 was 91 nM. With `O=C(NCCc1c[nH]c2ccc(Cl)cc12)c1ccccc1-c1ccccc1F` [Cpd035, N-(2-(5-chloro-1H-indol-3-yl)ethyl)-2′-fluorobiphenyl-2-carboxamide] the EC50 was 165 nM. Work on `O=C(NCCc1c[nH]c2ccc(Cl)cc12)c1cccc(-c2ccccc2F)c1` [Cpd036, N-(2-(5-chloro-1H-indol-3-yl)ethyl)-2′-fluorobiphenyl-3-carboxamide] yielded an EC50 of 139 nM. In the case of `O=C(NCCc1c[nH]c2ccc(Cl)cc12)c1ccc(-c2ccccc2F)cc1` [Cpd037, N-(2-(5-chloro-1H-indol-3-yl)ethyl)-2′-fluorobiphenyl-4-carboxamide], the EC50 is reported as 61 nM. With `O=C(NCCc1c[nH]c2ccc(Cl)cc12)c1ccccc1-c1cccc(F)c1` [Cpd038, N-(2-(5-chloro-1H-indol-3-yl)ethyl)-3′-fluorobiphenyl-2-carboxamide] the EC50 was 226 nM. Work on `O=C(NCCc1c[nH]c2ccc(Cl)cc12)c1ccc(-c2cccc(F)c2)cc1` [Cpd039, N-(2-(5-chloro-1H-indol-3-yl)ethyl)-3′-fluorobiphenyl-4-carboxamide] yielded an EC50 of 139 nM. For `O=C(NCCc1c[nH]c2ccc(Cl)cc12)c1ccccc1-c1ccc(F)cc1` [Cpd040, N-(2-(5-chloro-1H-indol-3-yl)ethyl)-4′-fluorobiphenyl-2-carboxamide], the EC50 was 208 nM. In the case of `O=C(NCCc1c[nH]c2ccc(Cl)cc12)c1cccc(-c2ccc(F)cc2)c1` [Cpd041, N-(2-(5-chloro-1H-indol-3-yl)ethyl)-4′-fluorobiphenyl-3-carboxamide], the EC50 is reported as 186 nM. `O=C(NCCc1c[nH]c2ccc(Cl)cc12)c1ccc(-c2ccc(F)cc2)cc1` [Cpd042, N-(2-(5-chloro-1H-indol-3-yl)ethyl)-4′-fluorobiphenyl-4-carboxamide] gave an EC50 of 228 nM. `N#Cc1ccccc1-c1cccc(C(=O)NCCc2c[nH]c3ccc(Cl)cc23)c1` [Cpd043, N-(2-(5-chloro-1H-indol-3-yl)ethyl)-2′-cyanobiphenyl-3-carboxamide] was tested, and the EC50 was 169 nM. Molecule `N#Cc1ccccc1-c1ccc(C(=O)NCCc2c[nH]c3ccc(Cl)cc23)cc1` [Cpd044, N-(2-(5-chloro-1H-indol-3-yl)ethyl)-2′-cyanobiphenyl-4-carboxamide] has an EC50 of 75 nM. `O=C(NCCc1c[nH]c2ccc(Cl)cc12)c1cccc(-c2ccncc2)c1` [Cpd045, N-(2-(5-chloro-1H-indol-3-yl)ethyl)-3-(pyridin-4-yl)benzamide] gave an EC50 of 327 nM. In the case of `O=C(NCCc1c[nH]c2ccc(Cl)cc12)c1ccc(-c2ccncc2)cc1` [Cpd046, N-(2-(5-chloro-1H-indol-3-yl)ethyl)-4-(pyridin-4-yl)benzamide], the EC50 is reported as 269 nM.
